Marks after values point to notes of the source that are not given here.
Tests used:
[1] = biological target: T1, hα4 and β1 integrins (VLA-4) (Homo sapiens, UniProt P05556+P13612); assay: In vitro evaluation: inhibition of binding of CHO cells expressing hα4 and β1 integrins to Eu3+-hVCAM-1 D1D7-IgG; details: ligand Eu3+-hVCAM-1 D1D7-IgG 2 nM, Ki calculated from IC50
T1 construct: expressed in transfected cells; host or cells: CHO cells
Procedure, shortened: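 CHO cells stably expressing hα4β1 were cultured 2 days, then incubated 1 h at room temperature with Eu3+-hVCAM-1 D1D7-IgG (added as 2 nM solution) and compound in HEPES pH 7.5 with Ca2+, Mg2+ and 4 mM Mn2+, ± 6% human serum albumin. Bound europium was read by time-resolved fluorescence; IC50 was converted to Ki using Scatchard-derived Kd.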

eosinophils in BALF = assay: Ascaris active sensitization-induced mouse eosinophil infiltration test; format: in vivo; details: test substance orally administered two times per day, BALF 48 hours after inducement; for Inhibition rate: vs Ascaris-induced group
Description: Ascaris (Ascaris suum Antigen in pigs) active sensitization-induced mouse eosinophil infiltration test:
It has been reported that cell infiltration of eosinophil is induced by inducing Ascaris active sensitization {Int. Arch. Immunol., 108, 11-18, (1995)}. In this evaluation method, a test compound was evaluated. A test substance was orally administered two times per day, the total count of cells and the count of eosinophils in BALF 48 hours after inducement were calculated, and the effect was determined by comparing with a non-test substance administered group.
Results of mouse eosinophil infiltration test ^1 anti-VLA-4 antibody, two times/1 day s.c. administration; **p<0.01: vs D, cont by student's t-test

[2] = Intracorporeal kinetics and oral absorbing property test (dog, oral cassette); format: in vivo; details: orally administered, 0.5 mg/kg cassette; for AUC (total area under the plasma concentration versus time curve): LC/MS/MS
Description: Intracorporeal Kinetics and Oral Absorbing Property Test: A pharmacokinetic parameter when a test substance was orally administered to a dog by 0.5 mg/kg cassette was as follows.

[3] = Dispersibility test in Japanese Pharmacopoeia First and Second Solution; format: physicochemical; details: for Dispersibility in Japanese Pharmacopoeia First Solution: JP1, pH 1.2; for Dispersibility in Japanese Pharmacopoeia Second Solution: JP2, pH 6.8
Description: Dispersibility of a test substance in Japanese Pharmacopoeia First Solution (JP1, pH 1.2) and Japanese Pharmacopoeia Second Solution (JP2, pH 6.8) was evaluated.

T1 sequence (P13612 34-1032): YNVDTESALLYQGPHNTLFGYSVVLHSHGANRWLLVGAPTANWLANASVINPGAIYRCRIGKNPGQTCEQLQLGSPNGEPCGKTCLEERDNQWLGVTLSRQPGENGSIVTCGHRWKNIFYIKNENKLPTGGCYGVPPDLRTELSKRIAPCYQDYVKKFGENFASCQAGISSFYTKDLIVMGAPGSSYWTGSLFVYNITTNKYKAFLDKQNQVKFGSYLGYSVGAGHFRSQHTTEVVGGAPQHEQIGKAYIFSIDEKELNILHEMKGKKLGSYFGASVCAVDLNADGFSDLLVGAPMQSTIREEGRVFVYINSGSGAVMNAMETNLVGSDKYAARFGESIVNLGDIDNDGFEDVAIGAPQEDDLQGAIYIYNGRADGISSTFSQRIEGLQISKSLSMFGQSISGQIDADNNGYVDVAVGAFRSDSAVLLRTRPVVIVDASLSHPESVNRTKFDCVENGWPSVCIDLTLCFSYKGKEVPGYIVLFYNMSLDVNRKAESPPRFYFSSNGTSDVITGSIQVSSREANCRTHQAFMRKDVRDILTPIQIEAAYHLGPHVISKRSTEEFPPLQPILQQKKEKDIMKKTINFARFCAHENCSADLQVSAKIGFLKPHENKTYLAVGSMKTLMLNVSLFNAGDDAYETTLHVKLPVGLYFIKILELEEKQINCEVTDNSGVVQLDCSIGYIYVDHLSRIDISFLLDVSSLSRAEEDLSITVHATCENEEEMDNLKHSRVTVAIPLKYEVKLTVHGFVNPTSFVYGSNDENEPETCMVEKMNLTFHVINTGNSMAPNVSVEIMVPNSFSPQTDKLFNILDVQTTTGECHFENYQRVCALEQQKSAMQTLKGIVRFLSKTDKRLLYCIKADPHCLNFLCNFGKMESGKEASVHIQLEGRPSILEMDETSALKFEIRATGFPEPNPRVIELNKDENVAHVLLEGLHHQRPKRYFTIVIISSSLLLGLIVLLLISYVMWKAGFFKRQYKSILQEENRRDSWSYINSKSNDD
T1 sequence (P05556 21-798): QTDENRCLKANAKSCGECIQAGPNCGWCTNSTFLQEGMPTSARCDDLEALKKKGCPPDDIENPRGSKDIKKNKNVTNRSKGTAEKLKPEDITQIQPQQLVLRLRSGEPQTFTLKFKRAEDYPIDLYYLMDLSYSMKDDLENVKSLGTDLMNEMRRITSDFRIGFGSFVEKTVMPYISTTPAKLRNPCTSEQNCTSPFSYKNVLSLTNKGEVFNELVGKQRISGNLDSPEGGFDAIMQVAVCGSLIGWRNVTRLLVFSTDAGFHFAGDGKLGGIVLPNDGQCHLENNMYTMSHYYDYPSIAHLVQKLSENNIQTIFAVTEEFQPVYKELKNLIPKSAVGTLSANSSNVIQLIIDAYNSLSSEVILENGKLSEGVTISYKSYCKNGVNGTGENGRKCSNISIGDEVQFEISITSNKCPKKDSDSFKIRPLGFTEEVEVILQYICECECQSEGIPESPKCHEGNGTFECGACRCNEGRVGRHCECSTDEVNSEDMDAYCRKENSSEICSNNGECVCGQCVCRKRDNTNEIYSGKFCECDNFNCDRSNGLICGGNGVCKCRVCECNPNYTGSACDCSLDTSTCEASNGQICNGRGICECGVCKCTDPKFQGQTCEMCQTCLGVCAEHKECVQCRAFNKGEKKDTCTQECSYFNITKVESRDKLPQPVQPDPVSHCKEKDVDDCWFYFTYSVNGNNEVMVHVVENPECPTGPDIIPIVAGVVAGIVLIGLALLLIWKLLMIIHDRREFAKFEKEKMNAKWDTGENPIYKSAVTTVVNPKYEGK

| Compound | Ki [1] [nM] | Average total eosinophil count (eosinophils in BALF) | Inhibition rate (eosinophils in BALF) | Cltot (apparent plasma clearance) [2] [mL/min/kg] | AUC (total area under the plasma concentration versus time curve) [2] [ng·h/mL] | Dispersibility in Japanese Pharmacopoeia First Solution [3] [µg/mL] | Dispersibility in Japanese Pharmacopoeia Second Solution [3] [µg/mL] |
| --- | --- | --- | --- | --- | --- | --- | --- |
| CO[C@H]1C[C@@H](c2ncc(CCC(=O)O)s2)N(C(=O)Cc2cc(Cl)c(NC(=O)c3cn(C)c4ccccc34)cc2Cl)C1 [Example 1, 3-[2-[1-[2,5-Dichloro-4-(1-methyl-3-indolylcarbonylamino)phenylacetyl]-(4S)-methoxy-(2S)-pyrrolidinyl]-5-thiazolyl]propionic acid] | 1.3 | 1.52 ×10^5 | 57** % | 1.23 | 7040 | 33 | >2000 |
| CO[C@H]1C[C@@H](c2ncc(CCC(=O)O)s2)N(C(=O)Cc2cc(Cl)c(NC(=O)c3cn(C)c4ccccc34)cc2F)C1 [Example 2, 3-[2-[1-[5-Chloro-2-fluoro-4-(1-methyl-3-indolylcarbonyl)aminophenylacetyl]-(4S)-methoxy-(2S)-pyrrolidinyl]-5-thiazolyl]propionic acid] | 0.85 |  |  | 0.81 | 10690 | 97 | >2000 |
| CO[C@H]1C[C@@H](c2ncc(CCC(=O)O)s2)N(C(=O)Cc2cc(Cl)c(NC(=O)c3csc4ccccc34)cc2F)C1 [Example 4, 3-[2-[1-[4-[(3-Benzo[b]thienylcarbonyl)amino]-5-chloro-2-fluorophenylacetyl]-(4S)-methoxy-(2S)-pyrrolidinyl]-5-thiazolyl]propionic acid] | 0.72 |  |  | 0.82 | 10240 |  |  |
| CC(C)O[C@H]1C[C@@H](c2ncc(CCC(=O)O)s2)N(C(=O)Cc2cc(Cl)c(NC(=O)c3csc4ccccc34)cc2F)C1 [Example 36, 3-[2-[1-[4-[(3-Benzo[b]thienylycarbonyl)amino]-5-chloro-2-fluorophenylacetyl]-4S-isopropoxy-(2S)-pyrrolidinyl]-5-thiazolyl]propionic acid] | 1.7 |  |  | 0.57 | 14935 |  |  |
| Cn1cc(C(=O)Nc2cc(Cl)c(CC(=O)N3C[C@@H](N4CCCCC4)C[C@H]3c3ncc(CCC(=O)O)s3)cc2Cl)c2ccccc21 [Example 46, 3-[2-[1-[2,5-Dichloro-4-(1-methyl-3-indolylcarbonylamino)phenylacetyl]-(4S=)=1-piperidinyl-(2S)-pyrrolidinyl]-5-thiazolyl]propionic acid] | 1.6 | 1.44 ×10^5 | 53** % |  |  | >2000 | 570 |
| CCOC[C@@H]1CC[C@@H](c2ncc(CCC(=O)O)s2)N1C(=O)Cc1ccc2nc(Nc3cc(F)ccc3C)oc2c1F [Example 51, 3-[2-[(5S)-ethoxymethyl-1-[7-fluoro-2-(5-fluoro-2-methylphenyl)amino-6-benzoxazolylacetyl]-(2S)-pyrrolidinyl]-5-thiazolyl]propionic acid] | 4.6 |  |  | 0.26 | 32310 | 88 | >800 |
| COC[C@@H]1CC[C@@H](c2ncc(CCC(=O)O)s2)N1C(=O)Cc1ccc2nc(Nc3cc(F)ccc3C)oc2c1F [Example 57, 3-[2-[1-[7-Fluoro-2-(5-fluoro-2-methylphenyl)-amino-6-benzoxazolylacetyl]-(5S)-methoxymethyl-(2S)-pyrrolidinyl]-5-thiazolyl]propionic acid] | 4.4 |  |  | 0.31 | 27620 |  |  |
| COC[C@@H]1CC[C@@H](c2ncc(CCC(=O)O)s2)N1C(=O)Cc1ccc2nc(Nc3cc(F)ccc3C)oc2c1 [Example 58] | 6.7 |  |  | 0.59 | 14860 |  |  |
| Cn1cc(C(=O)Nc2cc(Cl)c(CC(=O)N3[C@H](c4ncc(CCC(=O)O)s4)C[C@@H]4CCCC[C@@H]43)cc2Cl)c2ccccc21 [Example 60, 3-[2-[1-[2,5-Dichloro-4-(1-methyl-3-indolylcarbonyl)aminophenylacetyl]-(2S)-octahydroindolyl]-5-thiazolyl]propionic acid] | 8.6 |  |  | 0.42 | 19770 |  |  |
| O=C(O)CCc1cnc([C@@H]2[C@@H](O)CCN2C(=O)Cc2ccc(Nc3nc4ccccc4s3)c(Cl)c2)s1 [Example 119, 3-[2-[1-[4-(2-Benzothiazolyl)amino-3-chlorophenyl]acetyl-(3S)-hydroxy-(2S)-pyrrolidinyl]-5-thiazolyl]propionic acid] | 6.2 |  |  |  |  | 730 | 730 |
| O=C(O)CCc1cnc([C@@H]2[C@@H](O)CCN2C(=O)Cc2cc(Cl)c(Nc3nc4ccccc4s3)cc2F)s1 [Example 120, 3-[2-[1-[4-(2-Benzothiazolyl)amino-5-chloro-2-fluorophenyl]acetyl-(3S)-hydroxy-(2S)-pyrrolidinyl]-5-thiazolyl]propionic acid] | 9.8 |  |  |  |  | 320 | 760 |
| O=C(O)CCc1cnc([C@@H]2[C@@H](O)CCN2C(=O)Cc2cc(Cl)c(Nc3nc4ccccc4s3)cc2Cl)s1 [Example 121, 3-[2-[1-[4-(2-Benzothiazolyl)amino-2,5-dichlorophenyl]acetyl-(3S)-hydroxy-(2S)-pyrrolidinyl]-5-thiazolyl]propionic acid] | 8.5 |  |  |  |  | 160 | 780 |

— US20070232601A1, “Vla-4 Inhibitor” (priority 2004, published 2007)
